Laboratory results reported in ChEMBL document CHEMBL5724914, “Linking interpersonal differences in gut microbiota composition and drug biotransformation activity” (2024).

Key:
[1] = human gut metagenome, 24 h, 2 µM
[2] = human gut metagenome, 24 h, 2 µM; remark: listed apart in the source
[3] = human gut metagenome, 24 h, 2 µM; remark: listed apart in the source
[4] = (§1) The drug is tested on WLS-077 corresponding to human gut metagenome with ENA study accession number: PRJEB37062 and ENA sample accession number: ERS12561750 for biotransformation under anaerobic condition. The drug concentrations were measured over 9 timepoints collected between 0 and 24 hours of incubation by liquid-chromatography-coupled mass spectrometry (LC–MS); conditions: 2 µM
[5] = human gut metagenome, 24 h, 2 µM; remark: listed apart in the source
[6] = as §1, with “WLS-090” for “WLS-077”, “ERS12561753” for “ERS12561750”; conditions: 2 µM
[7] = as §1, with “WLS-086” for “WLS-077”, “ERS12561752” for “ERS12561750”; conditions: 2 µM
[8] = human gut metagenome, 24 h, 2 µM; remark: listed apart in the source
[9] = as §1, with “WLS-038” for “WLS-077”, “ERS12561745” for “ERS12561750”; conditions: 2 µM
Further: call rule not given here.

SMILES | Bacterial Biotransformation [1] | Bacterial Biotransformation [2] | Bacterial Biotransformation [3] | Bacterial Biotransformation [4] | Bacterial Biotransformation [5] | Bacterial Biotransformation [6] | Bacterial Biotransformation [7] | Bacterial Biotransformation [8] | Bacterial Biotransformation [9]
CNC(=C[N+](=O)[O-])NCCSCc1ccc(CN(C)C)o1 [RANITIDINE] | Compound metabolized | Compound metabolized | Compound NOT metabolized | Compound NOT metabolized | Compound metabolized | Compound NOT metabolized | Compound NOT metabolized | Compound metabolized | Compound NOT metabolized
COC(=O)[C@H]1[C@H]2C[C@@H]3c4[nH]c5cc(OC)ccc5c4CCN3C[C@H]2C[C@@H](OC(=O)c2cc(OC)c(OC)c(OC)c2)[C@@H]1OC [RESERPINE] | Compound NOT metabolized | Compound metabolized | Compound metabolized | Compound NOT metabolized | Compound metabolized | Compound metabolized | Compound metabolized | Compound NOT metabolized | Compound NOT metabolized
Nc1nc2ccc(OC(F)(F)F)cc2s1 [RILUZOLE] | Compound metabolized | Compound metabolized | Compound metabolized | Compound metabolized | Compound metabolized | Compound metabolized | Compound metabolized | Compound NOT metabolized | Compound metabolized
CC(C)c1nc(CN(C)C(=O)N[C@H](C(=O)N[C@@H](Cc2ccccc2)C[C@H](O)[C@H](Cc2ccccc2)NC(=O)OCc2cncs2)C(C)C)cs1 [RITONAVIR] | Compound metabolized | Compound metabolized | Compound metabolized | Compound metabolized | Compound metabolized | Compound metabolized | Compound metabolized | Compound NOT metabolized | Compound metabolized
CC(C)NCC(O)c1ccc(NS(C)(=O)=O)cc1 (configuration not stated) [SOTALOL] | Compound NOT metabolized | Compound NOT metabolized | Compound NOT metabolized | Compound NOT metabolized | Compound NOT metabolized | Compound metabolized | Compound NOT metabolized | Compound NOT metabolized | Compound NOT metabolized
CCN1CCCC1CNC(=O)c1cc(S(N)(=O)=O)ccc1OC (configuration not stated) [SULPIRIDE] | Compound NOT metabolized | Compound metabolized | Compound NOT metabolized | Compound metabolized | Compound metabolized | Compound metabolized | Compound metabolized | Compound NOT metabolized | Compound NOT metabolized
CNS(=O)(=O)Cc1ccc2[nH]cc(CCN(C)C)c2c1.O=C(O)CCC(=O)O [SUMATRIPTAN SUCCINATE] | Compound NOT metabolized | Compound NOT metabolized | Compound metabolized | Compound NOT metabolized | Compound metabolized | Compound metabolized | Compound metabolized | Compound NOT metabolized | Compound NOT metabolized
Nc1c2c(nc3ccccc13)CCCC2 [TACRINE] | Compound NOT metabolized | Compound NOT metabolized | Compound metabolized | Compound metabolized | Compound metabolized | Compound metabolized | Compound metabolized | Compound NOT metabolized | Compound NOT metabolized
Cc1ccc(S(=O)(=O)NC(=O)NN2CCCCCC2)cc1 [TOLAZAMIDE] | Compound metabolized | Compound metabolized | Compound metabolized | Compound metabolized | Compound metabolized | Compound metabolized | Compound metabolized | Compound NOT metabolized | Compound metabolized
CCOC(=O)[C@H](CCc1ccccc1)N[C@@H](C)C(=O)N1[C@H](C(=O)O)C[C@H]2CCCC[C@@H]21 [TRANDOLAPRIL] | Compound metabolized | Compound metabolized | Compound metabolized | Compound metabolized | Compound metabolized | Compound metabolized | Compound metabolized | Compound NOT metabolized | Compound metabolized
CC(CN(C)C)CN1c2ccccc2CCc2ccccc21.O=C(O)/C=C\C(=O)O (configuration not stated) [TRIMIPRAMINE MALEATE] | Compound NOT metabolized | Compound metabolized | Compound metabolized | Compound NOT metabolized | Compound metabolized | Compound metabolized | Compound metabolized | Compound metabolized | Compound NOT metabolized
CC(=O)CC(c1ccccc1)c1c(O)c2ccccc2oc1=O (configuration not stated) [WARFARIN] | Compound metabolized | Compound metabolized | Compound metabolized | Compound metabolized | Compound metabolized | Compound metabolized | Compound metabolized | Compound metabolized | Compound NOT metabolized
Cc1ccc(-c2nc3ccc(C)cn3c2CC(=O)N(C)C)cc1 [ZOLPIDEM] | Compound NOT metabolized | Compound metabolized | Compound metabolized | Compound NOT metabolized | Compound metabolized | Compound metabolized | Compound metabolized | Compound NOT metabolized | Compound NOT metabolized
